Test results: patent US10301260B2, “Pyrrolidine GPR40 modulators” (BRISTOL-MYERS SQUIBB COMPANY, priority 2014, dated 2019)
Structures can show the parent of a compound that is named as a salt.

Molecular target: T1, hGPR40 (Homo sapiens, UniProt O14842)
T1 construct: 3xFLAG; expressed in transfected cells
Test: FDSS-based intracellular calcium assay (Human GRP40 In Vitro assay)
Assay type: cell-based
Conditions: cells expressing GPR40, intracellular Ca2+ response
Experimental: FDSS-Based Intracellular Calcium Assay
Cell lines expressing GPR40 are generated using the pDEST-3xFLAG gene expression system and are cultured in culture medium comprising the following components: F12 (Gibco #11765), 10% lipid deprived fetal bovine serum, 250 μg/ml zeocin and 500 μg/ml G418. To conduct the fluorescent imaging plate reader (FLIPR)-based calcium flux assay to measure intracellular Ca^2+ response, cells expressing GPR40 are plated on 384 well plates (BD Biocoat #356697) at a density of 20,000 cells/20 μL medium per well in phenol red and serum-free DMEM (Gibco #21063-029) and incubated overnight. Using BD kit #s 80500-310 or -301, the cells are incubated with 20 μL per well of Hank's buffered salt solution with 1.7 mM probenecid and Fluo-3 at 37° C. for 30 min. Compounds are dissolved in DMSO and diluted to desired concentrations with assay buffer and added to the cells as 3× solution (20 μL per well). Run fluorescence/luminescence reader FDSS (Hamamatsu) to read intracellular Ca^2+ response.
The exemplified Examples disclosed below were tested in the Human GRP40 In Vitro assay described above and found having hGRP40 modulating activity.

T1 sequence (O14842 whole entry): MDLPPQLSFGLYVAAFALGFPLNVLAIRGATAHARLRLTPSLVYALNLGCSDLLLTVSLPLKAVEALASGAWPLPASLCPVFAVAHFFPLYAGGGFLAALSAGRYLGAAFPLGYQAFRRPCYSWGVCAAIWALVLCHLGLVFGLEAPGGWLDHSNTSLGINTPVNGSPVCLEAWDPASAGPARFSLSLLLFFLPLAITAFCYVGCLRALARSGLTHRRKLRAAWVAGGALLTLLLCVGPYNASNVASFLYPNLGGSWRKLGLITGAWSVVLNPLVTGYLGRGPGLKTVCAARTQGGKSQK

SMILES	EC50 [nM]
COc1ccc(F)c(-c2ccc(Cc3ccc(N4CC(c5cc(C)no5)CC4CC(=O)O)cc3)c(C)c2)c1 (single isomer, unassigned) [Example 9, Isomer 1, 2-(1-(4-((2′-Fluoro-5′-methoxy-3-methyl-[1,1′-biphenyl]-4-yl)methyl)phenyl)-4-(3-methylisoxazol-5-yl)pyrrolidin-2-yl)acetic Acid, HCl]	150
COc1ccc(F)c(-c2ccc(Cc3ccc(N4C[C@H](c5cccnc5)C[C@@H]4CC(=O)O)cc3)c(C)c2)c1 [Example 8, 2-((2R,4S)-1-(4-((2′-Fluoro-5′-methoxy-3-methyl-[1,1′-biphenyl]-4-yl)methyl)phenyl)-4-(pyridin-3-yl)pyrrolidin-2-yl)acetic Acid, HCl]	94
COc1ccc(F)c(-c2ccc(Cc3ccc(N4CC(c5cc(C)no5)CC4CC(=O)O)cc3)c(C)c2)c1 (single isomer, unassigned) [Example 9, Isomer 3, 2-(1-(4-((2′-Fluoro-5′-methoxy-3-methyl-[1,1′-biphenyl]-4-yl)methyl)phenyl)-4-(3-methylisoxazol-5-yl)pyrrolidin-2-yl)acetic Acid, HCl]	1400
COc1ccc(F)c(-c2ccc(Cc3ccc(N4CC(C#N)CC4CC(=O)O)cc3)c(C)c2)c1 (centres unmarked) [Example 2, 2-(4-Cyano-1-(4-((2′-fluoro-5′-methoxy-3-methylbiphenyl-4-yl)methyl)phenyl)pyrrolidin-2-yl)acetic Acid, TFA]	270
COc1ccc(F)c(-c2ccc(Cc3ccc(N4C[C@H](c5ccc(-c6ccccc6)cc5)C[C@@H]4CC(=O)O)cc3)c(C)c2)c1 [Example 4, 2-((2R,4S)-4-([1,1′-Biphenyl]-4-yl)-1-(4-((2′-fluoro-5′-methoxy-3-methyl-[1,1′-biphenyl]-4-yl)methyl)phenyl)pyrrolidin-2-yl)acetic Acid, HCl]	210
COc1ccc(F)c(-c2ccc(Cc3ccc(N4C[C@@H](c5ccccc5)C[C@@H]4CC(=O)O)cc3)c(C)c2)c1 [Example 5, 2-((2R,4R)-1-(4-((2′-Fluoro-5′-methoxy-3-methyl-[1,1′-biphenyl]-4-yl)methyl)phenyl)-4-phenylpyrrolidin-2-yl)acetic Acid]	130
COc1ccc(F)c(-c2ccc(Cc3ccc(N4CC(c5ccon5)CC4CC(=O)O)cc3)c(C)c2)c1 (single isomer, unassigned) [Example 11, Isomer 1, 2-(1-(4-((2′-Fluoro-5′-methoxy-3-methyl-[1,1′-biphenyl]-4-yl)methyl)phenyl)-4-(isoxazol-3-yl)pyrrolidin-2-yl)acetic Acid, HCl]	8100
COc1ccc(F)c(-c2ccc(Cc3ccc(N4CC(c5cc(C)no5)CC4CC(=O)O)cc3)c(C)c2)c1 (single isomer, unassigned) [Example 9, Isomer 4, 2-(1-(4-((2′-Fluoro-5′-methoxy-3-methyl-[1,1′-biphenyl]-4-yl)methyl)phenyl)-4-(3-methylisoxazol-5-yl)pyrrolidin-2-yl)acetic Acid, HCl]	3500
COc1ccc(F)c(-c2ccc(Cc3ccc(N4C[C@](OC)(c5ccc(-c6ccccc6)cc5)C[C@@H]4CC(=O)O)cc3)c(C)c2)c1 [Example 6, 2-((2R,4R)-4-([1,1′-Biphenyl]-4-yl)-1-(4-((2′-fluoro-5′-methoxy-3-methyl-[1,1′-biphenyl]-4-yl)methyl)phenyl)-4-methoxypyrrolidin-2-yl)acetic Acid, HCl]	77
COCCO[C@@H]1C[C@H](CC(=O)O)N(c2ccc(Cc3ccc(-c4cc(OC)ccc4F)cc3C)cc2)C1 [Example 7, 2-((2R,4R)-1-(4-((2′-Fluoro-5′-methoxy-3-methyl-[1,1′-biphenyl]-4-yl)methyl)phenyl)-4-(2-methoxyethoxy)pyrrolidin-2-yl)acetic Acid, HCl]	240
COc1ccc(F)c(-c2ccc(Cc3ccc(N4C[C@@H](c5ccccn5)C[C@@H]4CC(=O)O)cc3)c(C)c2)c1 [Example 10, 2-((2R,4S)-1-(4-((2′-Fluoro-5′-methoxy-3-methyl-[1,1′-biphenyl]-4-yl)methyl)phenyl)-4-(pyridin-2-yl)pyrrolidin-2-yl)acetic Acid, HCl]	1400
COc1ccc(F)c(-c2ccc(Cc3ccc(N4C[C@H](c5ccccc5)C[C@@H]4CC(=O)O)cc3)c(C)c2)c1 [Example 1, 2-((2R,4S)-1-(4-((2′-Fluoro-5′-methoxy-3-methylbiphenyl-4-yl)methyl)phenyl)-4-phenylpyrrolidin-2-yl)acetic Acid, HCl]	15
COc1ccc(F)c(-c2ccc(Cc3ccc(N4CC(c5cc(C)no5)CC4CC(=O)O)cc3)c(C)c2)c1 (single isomer, unassigned) [Example 9, Isomer 2, 2-(1-(4-((2′-Fluoro-5′-methoxy-3-methyl-[1,1′-biphenyl]-4-yl)methyl)phenyl)-4-(3-methylisoxazol-5-yl)pyrrolidin-2-yl)acetic Acid, HCl]	2200
COc1ccc(F)c(-c2ccc(Cc3ccc(N4C[C@H](C5CCCCC5)C[C@@H]4CC(=O)O)cc3)c(C)c2)c1 [Example 3, 2-((2R,4S)-4-Cyclohexyl-1-(4-((2′-fluoro-5′-methoxy-3-methyl-[1,1′-biphenyl]-4-yl)methyl)phenyl)pyrrolidin-2-yl)acetic Acid, HCl]	13

Second part, the compound after the results:

EC50 [nM]	SMILES
1000	COc1ccc(F)c(-c2ccc(COc3ccc(N4C[C@H](c5ccccc5)C[C@@H]4CC(=O)O)cc3)c(C)c2)c1 [Example 16, 2-((2R,4S)-1-(4-((2′-Fluoro-5′-methoxy-3-methyl-[1,1′-biphenyl]-4-yl)methoxy)phenyl)-4-phenylpyrrolidin-2-yl)acetic Acid, HCl]
39	COc1ccc(F)c(-c2ccc(Cc3ccc(N4C[C@H](c5ccccc5OC)C[C@@H]4CC(=O)O)cc3)c(C)c2)c1 (single isomer, unassigned) [Example 15, Isomer 1, HCl]
160	COc1ccc(F)c(-c2ccc(Cc3ccc(N4CC(c5cccc(Cl)c5)C[C@@H]4CC(=O)O)cc3)c(C)c2)c1 (single isomer, unassigned) [Example 12, Isomer 1, HCl]
39	COCCCO[C@H]1CN(c2ccc(Cc3ccc(-c4cc(OC)ccc4F)cc3C)cc2)[C@@H](CC(=O)O)[C@@H]1C [Example 17, 2-((2S,3S,4R)-1-(4-((2′-Fluoro-5′-methoxy-3-methyl-[1,1′-biphenyl]-4-yl)methyl)phenyl)-4-(3-methoxypropoxy)-3-methylpyrrolidin-2-yl)acetic Acid, HCl]
550	COc1ccc(F)c(-c2ccc(Cc3ccc(N4CC(c5ccon5)CC4CC(=O)O)cc3)c(C)c2)c1 (single isomer, unassigned) [Example 11, Isomer 2, 2-(1-(4-((2′-Fluoro-5′-methoxy-3-methyl-[1,1′-biphenyl]-4-yl)methyl)phenyl)-4-(isoxazol-3-yl)pyrrolidin-2-yl)acetic Acid, HCl]
10	COc1ccc(F)c(-c2ccc(Cc3ccc(N4CC(c5cccc(Cl)c5)C[C@@H]4CC(=O)O)cc3)c(C)c2)c1 (single isomer, unassigned) [Example 12, Isomer 2, HCl]
2800	COc1ccc(F)c(-c2ccc(Cc3ccc(N4C[C@H](N5CCCCC5)C[C@@H]4CC(=O)O)cc3)c(C)c2)c1 (single isomer, unassigned) [Example 13, Isomer 2]
6700	COc1ccc(F)c(-c2ccc(Cc3ccc(N4C[C@@H](N5CCCCC5)C[C@@H]4CC(=O)O)cc3)c(C)c2)c1 (single isomer, unassigned) [Example 13, Isomer 1]
61	COc1ccc(F)c(-c2ccc(Cc3ccc(N4C[C@@H](c5ccccc5OC)C[C@@H]4CC(=O)O)cc3)c(C)c2)c1 (single isomer, unassigned) [Example 15, Isomer 2, HCl]
